Measurements taken from ChEMBL document CHEMBL2321831, “Design, synthesis, and biological evaluations of novel 7-[7-amino-7-methyl-5-azaspiro[2.4]heptan-5-yl]-8-methoxyquinolines with potent antibacterial activity against respiratory pathogens” (J Med Chem, 2013).
In brackets after ≈: the same amount, converted by molar mass.

Columns and labels:
Chlamydia pneumoniae [1] = assay: Antibacterial activity against Chlamydophila pneumoniae CM-1 after 18 hrs by microbroth dilution method; type: functional; conditions: CM-1, 18 h
Chlamydia pneumoniae [2] = assay: Antibacterial activity against Chlamydophila pneumoniae AR39 after 18 hrs by microbroth dilution method; type: functional; conditions: AR39, 18 h
[3] = tested on: Mycoplasmoides pneumoniae; assay: Antibacterial activity against Mycoplasma pneumoniae ATCC 29085 after 18 hrs by microbroth dilution method; type: functional; conditions: ATCC 29085, 18 h
[4] = tested on: Mycoplasmoides pneumoniae; assay: Antibacterial activity against Mycoplasma pneumoniae 18-1 after 18 hrs by microbroth dilution method; type: functional; conditions: 18-1, 18 h
Streptococcus pneumoniae [5] = assay: Antibacterial activity against levofloxacin-intermediate and levofloxacin-resistant Streptococcus pneumoniae after 18 hrs by microbroth dilution method; type: functional
[6] = Primary phase half life in cynomolgus monkey serum at 5 mg/kg, iv; type: ADME, organism-based, Macaca fascicularis; parameters: dose 5 mg/kg, route intravenous; conditions: read-out: alphat1/2 (converted)
[7] = AUC (0 to 8 hrs) in cynomolgus monkey serum at 5 mg/kg, iv; type: ADME, organism-based, Macaca fascicularis, Plasma; parameters: time < 8 hr, dose 5 mg/kg, route intravenous
[8] = Drug uptake in cynomolgus monkey serum at 5 mg/kg, iv after 5 mins; type: ADME, organism-based, Macaca fascicularis; parameters: dose 5 mg/kg, route intravenous; conditions: read-out: Drug uptake
[9] = Drug recovery in cynomolgus monkey urine at 5 mg/kg, po after 24 hrs; type: ADME, organism-based, Macaca fascicularis; parameters: dose 5 mg/kg, route oral; conditions: read-out: Drug recovery
[10] = Bioavailability in cynomolgus monkey at 5 mg/kg, po; type: ADME, organism-based, Macaca fascicularis; conditions: in vivo
[11] = Half life in cynomolgus monkey serum at 5 mg/kg, po; type: ADME, organism-based, Macaca fascicularis; parameters: dose 5 mg/kg, route oral
[12] = Cmax in cynomolgus monkey serum at 5 mg/kg, po; type: ADME, organism-based, Macaca fascicularis; parameters: dose 5 mg/kg, route oral
[13] = AUC (0 to 24 hrs) in cynomolgus monkey serum at 5 mg/kg, po; type: ADME, organism-based, Macaca fascicularis, Plasma; parameters: time < 24 hr, dose 5 mg/kg, route oral
[14] = Drug recovery in Crj:CD rat urine at 5 mg/kg, po after 24 hrs; type: ADME, organism-based; parameters: dose 5 mg/kg, route oral; conditions: read-out: Drug recovery
[15] = Drug recovery in cynomolgus monkey urine at 5 mg/kg, iv after 24 hrs; type: ADME, organism-based, Macaca fascicularis; parameters: dose 5 mg/kg, route intravenous; conditions: read-out: Drug recovery
[16] = Ratio of AUC (0 to 8 hrs) in Crj:CD rat kidney to AUC (0 to 8 hrs) in Crj:CD rat serum at 5 mg/kg, po; type: ADME, organism-based; parameters: dose 5 mg/kg, route oral; conditions: read-out: Ratio AUC
[17] = Ratio of AUC (0 to 8 hrs) in Crj:CD rat liver to AUC (0 to 8 hrs) in Crj:CD rat serum at 5 mg/kg, po; type: ADME, organism-based; parameters: dose 5 mg/kg, route oral; conditions: read-out: Ratio AUC
[18] = AUC (0 to 8 hrs) in Crj:CD rat kidney at 5 mg/kg, po; type: ADME, organism-based; parameters: time < 8 hr, dose 5 mg/kg, route oral
[19] = AUC (0 to 8 hrs) in Crj:CD rat liver at 5 mg/kg, po; type: ADME, organism-based; parameters: time < 8 hr, dose 5 mg/kg, route oral
[20] = Ratio of AUC (0 to 8 hrs) in Crj:CD rat lung to AUC (0 to 8 hrs) in Crj:CD rat serum at 5 mg/kg, po; type: ADME, organism-based; parameters: dose 5 mg/kg, route oral; conditions: read-out: Ratio AUC
[21] = AUC (0 to 8 hrs) in Crj:CD rat lung at 5 mg/kg, po; type: ADME, organism-based; parameters: time < 8 hr, dose 5 mg/kg, route oral
[22] = Cmax in Crj:CD rat serum at 5 mg/kg, po; type: ADME, organism-based; parameters: dose 5 mg/kg, route oral
[23] = AUC (0 to 8 hrs) in Crj:CD rat serum at 5 mg/kg, po; type: ADME, organism-based; parameters: time < 8 hr, dose 5 mg/kg, route oral
[24] = Plasma protein binding in human at 5 ug/mL by ultrafiltration method; type: ADME, cell-free; conditions: read-out: PPB (converted)
[25] = Aqueous solubility of the compound; type: physicochemical
hERG (KCNH2) [26] = target: T1, hERG (KCNH2) (Homo sapiens, UniProt Q12809); assay: Inhibition of human ERG expressed in CHOK1 cells at 100 uM; type: cell-based; conditions: CHO-K1 cells expressing hERG
T1 sequence (Q12809 whole entry): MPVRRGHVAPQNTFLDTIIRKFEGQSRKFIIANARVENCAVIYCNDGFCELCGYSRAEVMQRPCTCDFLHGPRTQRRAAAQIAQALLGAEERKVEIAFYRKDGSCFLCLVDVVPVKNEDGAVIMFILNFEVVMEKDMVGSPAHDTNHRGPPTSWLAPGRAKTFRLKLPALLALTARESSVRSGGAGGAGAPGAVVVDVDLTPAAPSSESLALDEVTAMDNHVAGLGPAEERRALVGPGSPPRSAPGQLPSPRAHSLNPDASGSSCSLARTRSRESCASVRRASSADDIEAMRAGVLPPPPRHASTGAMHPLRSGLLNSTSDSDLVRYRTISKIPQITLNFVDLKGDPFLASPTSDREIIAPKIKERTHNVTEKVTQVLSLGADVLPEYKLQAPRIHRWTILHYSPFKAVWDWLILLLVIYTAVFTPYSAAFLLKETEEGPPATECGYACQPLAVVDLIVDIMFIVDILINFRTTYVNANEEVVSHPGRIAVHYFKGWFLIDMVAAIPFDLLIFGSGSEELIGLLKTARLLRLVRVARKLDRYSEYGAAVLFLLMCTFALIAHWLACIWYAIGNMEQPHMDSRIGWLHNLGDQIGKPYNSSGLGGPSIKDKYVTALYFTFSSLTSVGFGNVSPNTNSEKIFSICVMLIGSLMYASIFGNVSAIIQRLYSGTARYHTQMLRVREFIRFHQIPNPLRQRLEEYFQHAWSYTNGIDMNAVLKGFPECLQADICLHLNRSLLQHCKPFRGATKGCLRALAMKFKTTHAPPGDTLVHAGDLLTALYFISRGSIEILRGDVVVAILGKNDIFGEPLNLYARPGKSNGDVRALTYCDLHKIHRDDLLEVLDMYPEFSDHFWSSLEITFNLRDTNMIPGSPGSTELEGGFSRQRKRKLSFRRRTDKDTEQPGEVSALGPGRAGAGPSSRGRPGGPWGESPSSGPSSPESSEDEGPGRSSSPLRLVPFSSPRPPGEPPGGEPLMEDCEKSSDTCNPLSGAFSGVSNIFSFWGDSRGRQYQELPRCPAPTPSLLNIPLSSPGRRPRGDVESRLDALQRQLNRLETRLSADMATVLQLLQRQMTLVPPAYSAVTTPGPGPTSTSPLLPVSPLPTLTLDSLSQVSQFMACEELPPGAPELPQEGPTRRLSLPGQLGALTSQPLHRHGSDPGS

hERG (KCNH2) [27] = target: T1, hERG (KCNH2); assay: Inhibition of human ERG expressed in CHOK1 cells at 30 uM; type: cell-based; conditions: CHO-K1 cells expressing hERG
Pseudomonas aeruginosa = assay: Antibacterial activity against Pseudomonas aeruginosa PAO1 after 18 hrs by microbroth dilution method; type: functional; conditions: PAO1, 18 h
Moraxella catarrhalis = assay: Antibacterial activity against Moraxella catarrhalis ATCC 25238 after 18 hrs by microbroth dilution method; type: functional; conditions: ATCC 25238, 18 h
Haemophilus influenzae = assay: Antibacterial activity against Haemophilus influenzae ATCC 49247 after 18 hrs by microbroth dilution method; type: functional; conditions: ATCC 49247, 18 h
Escherichia coli = assay: Antibacterial activity against Escherichia coli NIHJ after 18 hrs by microbroth dilution method; type: functional
Klebsiella pneumoniae = assay: Antibacterial activity against Klebsiella pneumoniae TYPE1 after 18 hrs by microbroth dilution method; type: functional; conditions: TYPE1, 18 h
Bacillus subtilis = assay: Antibacterial activity against Bacillus subtilis IID 685 after 18 hrs by microbroth dilution method; type: functional; conditions: IID 685, 18 h
Streptococcus pyogenes = assay: Antibacterial activity against Streptococcus pyogenes G-36 after 18 hrs by microbroth dilution method; type: functional; conditions: G-36, 18 h
Streptococcus pneumoniae [28] = assay: Antibacterial activity against quinolone, penicillin-resistant Streptococcus pneumoniae 104835 after 18 hrs by microbroth dilution method; type: functional; conditions: Streptococcus pneumoniae, 104835, 18 h
Streptococcus pneumoniae [29] = assay: Antibacterial activity against penicillin-susceptible Streptococcus pneumoniae J24 after 18 hrs by microbroth dilution method; type: functional; conditions: J24, 18 h
Staphylococcus aureus [30] = assay: Antibacterial activity against levofloxacin-resistant and methicillin-resistant Staphylococcus aureus 870307 after 18 hrs by microbroth dilution method; type: functional; conditions: Staphylococcus aureus, 870307, 18 h
Staphylococcus aureus [31] = assay: Antibacterial activity against Staphylococcus aureus FDA 209-P after 18 hrs by microbroth dilution method; type: functional
[32] = Chloroform-phosphate buffer apparent partition coefficient of the compound, P at pH 7.4

CO/N=C1\CN(c2nc3c(cc2F)c(=O)c(C(=O)O)cn3C2CC2)CC1CN (stereo not drawn) [GEMIFLOXACIN]
MIC (Chlamydia pneumoniae [1]): 0.063 µg/mL (≈ 0.162 µM) | MIC (Chlamydia pneumoniae [2]): 0.125 µg/mL (≈ 0.321 µM) | MIC [3]: 0.25 µg/mL (≈ 0.642 µM) | MIC [4]: 0.25 µg/mL (≈ 0.642 µM)

C[C@H]1NCc2cc(-c3ccc4c(=O)c(C(=O)O)cn(C5CC5)c4c3OC(F)F)ccc21 [GARENOXACIN]
MIC50 (Streptococcus pneumoniae [5]): 0.25 µg/mL (≈ 0.586 µM) | MIC80 (Streptococcus pneumoniae [5]): 0.5 µg/mL (≈ 1.17 µM) | MIC90 (Streptococcus pneumoniae [5]): 1 µg/mL (≈ 2.35 µM) | MIC (Chlamydia pneumoniae [1]): 0.016 µg/mL (≈ 0.0375 µM) | MIC (Chlamydia pneumoniae [2]): 0.063 µg/mL (≈ 0.148 µM) | MIC [3]: 0.06 µg/mL (≈ 0.141 µM) | MIC [4]: 0.12 µg/mL (≈ 0.281 µM)

CC1(C)S[C@@H]2[C@H](NC(=O)[C@H](N)c3ccc(O)cc3)C(=O)N2[C@H]1C(=O)O [AMOXICILLIN]
MIC50 (Streptococcus pneumoniae [5]): 0.06 µg/mL (≈ 0.164 µM) | MIC80 (Streptococcus pneumoniae [5]): 2 µg/mL (≈ 5.47 µM) | MIC90 (Streptococcus pneumoniae [5]): 2 µg/mL (≈ 5.47 µM)

CC[C@H]1OC(=O)[C@H](C)[C@@H](O[C@H]2C[C@@](C)(OC)[C@@H](O)[C@H](C)O2)[C@H](C)[C@@H](O[C@@H]2O[C@H](C)C[C@H](N(C)C)[C@H]2O)[C@](C)(O)C[C@@H](C)CN(C)[C@H](C)[C@@H](O)[C@]1(C)O [AZITHROMYCIN]
MIC50 (Streptococcus pneumoniae [5]): > 32 µg/mL | MIC80 (Streptococcus pneumoniae [5]): > 32 µg/mL | MIC90 (Streptococcus pneumoniae [5]): > 32 µg/mL

COc1c(N2C[C@@H](N)C3(CC3)C2)c(F)cc2c(=O)c(C(=O)O)cn([C@@H]3C[C@@H]3F)c12.Cl.O
half-life [6]: 2.1 h | AUC(0-t) at 8 h [7]: 19400 ng·h/mL | concentration at 5 min [8]: 4750 ng/mL | dose excreted at 24 h [9]: 41% | bioavailability [10]: 49% | half-life [11]: 3.1 h | Cmax [12]: 1270 ng/mL | AUC(0-t) at 24 h [13]: 9450 ng·h/mL | dose excreted at 24 h [14]: 23.1% | dose excreted at 24 h [15]: 50.7% | Kp [16]: 12.2 | Kp [17]: 9.4 | AUC(0-t) at 8 h [18]: 19300 ng·h/mL | AUC(0-t) at 8 h [19]: 15000 ng·h/mL | Kp [20]: 4.3 | AUC(0-t) at 8 h [21]: 6770 ng·h/mL | Cmax [22]: 816 ng/mL | AUC(0-t) at 8 h [23]: 1590 ng·h/mL | fraction unbound at 5 ug/mL [24]: 0.582 | solubility [25]: 446 µg/mL | inhibition at 100 µM (hERG (KCNH2) [26]): 14.1% | inhibition at 30 µM (hERG (KCNH2) [27]): 5.2% | MIC (Pseudomonas aeruginosa): 0.2 µg/mL | MIC (Moraxella catarrhalis): 0.012 µg/mL | MIC (Haemophilus influenzae): < 0.003 µg/mL | MIC (Escherichia coli): 0.006 µg/mL | MIC (Klebsiella pneumoniae): 0.05 µg/mL | MIC (Bacillus subtilis): 0.05 µg/mL | MIC (Streptococcus pyogenes): 0.05 µg/mL | MIC (Streptococcus pneumoniae [28]): 0.2 µg/mL | MIC (Streptococcus pneumoniae [29]): 0.05 µg/mL | MIC (Staphylococcus aureus [30]): 0.39 µg/mL | MIC (Staphylococcus aureus [31]): 0.012 µg/mL | P [32]: 8.8

O=C(O)c1cn(C2CC2)c2cc(N3CCNCC3)c(F)cc2c1=O [CIPROFLOXACIN]
MIC50 (Streptococcus pneumoniae [5]): 16 µg/mL (≈ 48.3 µM) | MIC80 (Streptococcus pneumoniae [5]): 32 µg/mL (≈ 96.6 µM) | MIC90 (Streptococcus pneumoniae [5]): 32 µg/mL (≈ 96.6 µM) | MIC (Pseudomonas aeruginosa): 0.05 µg/mL (≈ 0.151 µM) | MIC (Moraxella catarrhalis): 0.025 µg/mL (≈ 0.0754 µM) | MIC (Haemophilus influenzae): 0.006 µg/mL (≈ 0.0181 µM) | MIC (Escherichia coli): < 0.003 µg/mL | MIC (Bacillus subtilis): 3.12 µg/mL (≈ 9.42 µM) | MIC (Streptococcus pyogenes): 1.56 µg/mL (≈ 4.71 µM) | MIC (Streptococcus pneumoniae [28]): > 6.25 µg/mL | MIC (Streptococcus pneumoniae [29]): 0.78 µg/mL (≈ 2.35 µM) | MIC (Staphylococcus aureus [30]): > 6.25 µg/mL
